C[N+](C)(C)CC(=O)[O-]
Settings | solubility (mole fraction)
in DMSO, 288.51 K | 0.001
in DMSO, 292.73 K | 0.00116
in DMSO, 298.34 K | 0.00139
in DMSO, 305.16 K | 0.00172
in DMSO, 308.53 K | 0.0019
in DMSO, 313.2 K | 0.00219
in DMSO, 318.16 K | 0.00253
in DMSO, 322.88 K | 0.00291
in DMSO, 327.87 K | 0.00334
in DMSO, 333.58 K | 0.00391
in acetic acid, 292.83 K | 0.23
in acetic acid, 297.84 K | 0.239
in acetic acid, 302.28 K | 0.252
in acetic acid, 308.31 K | 0.268
in acetic acid, 312.79 K | 0.279
in acetic acid, 317.76 K | 0.298
in acetic acid, 322.58 K | 0.306
in acetic acid, 328.87 K | 0.327
in acetic acid, 333.12 K | 0.344
in ethylene glycol, 283.42 K | 0.102
in ethylene glycol, 288.53 K | 0.109
in ethylene glycol, 292.46 K | 0.117
in ethylene glycol, 298.03 K | 0.125
in ethylene glycol, 303.87 K | 0.137
in ethylene glycol, 308.52 K | 0.145
in ethylene glycol, 314.59 K | 0.161
in ethylene glycol, 318.19 K | 0.167
in ethylene glycol, 323.98 K | 0.183
in ethylene glycol, 328.33 K | 0.192
in isopentanol, 286.47 K | 0.000166
in isopentanol, 289.13 K | 0.000185
in isopentanol, 293.93 K | 0.000225
in isopentanol, 298.25 K | 0.000269
in isopentanol, 302.72 K | 0.000316
in isopentanol, 307.37 K | 0.000378
in isopentanol, 314.06 K | 0.000477
in isopentanol, 318.23 K | 0.000556
in isopentanol, 322.6 K | 0.000646
in n-pentanol, 285.88 K | 0.000216
in n-pentanol, 289.5 K | 0.000249
in n-pentanol, 294.44 K | 0.000301
in n-pentanol, 299.59 K | 0.000368
in n-pentanol, 304.38 K | 0.000436
in n-pentanol, 309.45 K | 0.000523
in n-pentanol, 313.8 K | 0.000609
in n-pentanol, 318.18 K | 0.000705
in n-pentanol, 323.02 K | 0.000822
